Measurements: US9250241B2, “Use of micropatterned soft substrate for measuring of cell traction forces” (COMMISSARIAT A L'ENERGIE ATOMIQUE ET AUX ENERGIES …, priority 2011, dated 2016)

How the values were obtained:
[1] = system: MCF10A cells; test: Cell traction force measurement by crossbow micropattern bar length on micropatterned PAA; assay type: cell-based, human
Description: Non-tumorigenic human epithelial cells from the mammary gland, MCF10A, were plated on the micropatterned PAA substrates. Cells specifically attached to the fibronectin coated micropatterns since non-exposed PAA regions prevented protein adsorption (FIG. 2D). The effect of micropattern geometry on cell traction forces orientation was tested on various shapes: disc, pacman and crossbow (FIG. 3A). Spread cells exerted traction forces on the micropattern that could be measured by looking at the displacement of fluorescent beads embedded in the PAA gel (see FIG. 3B and Material and Methods). Particle Image Velocimetry followed by individual particle tracking were used to measure bead displacements (Marganski et al (2003) Methods Enzymol 361:197-211; Sabass et al (2008) Biophys J 94(1):207-220). Force fields were calculated from the bead displacement fields by using the Fourier transform traction cytometry (Sabass et al, supra; Butler et al (2002) Am J Physiol Cell Physiol 282(3):C595-605). Force fields exerted by individual cells were overlaid and averaged to quantify their reproducibility (FIG. 3C,D). On homogeneously coated regions cells developed forces that were randomly distributed from one cell to the other. In cells constrained on disc shaped micropatterns, forces were still randomly oriented but their magnitudes were lowered due to reduced cell spreading. In cells constrained on pacman shaped micropatterns, forces distribution was geometrically biased due to enhanced cell contraction above non adhesive regions. […] Importantly, most of the traction forces were reproducibly oriented upward, along the straight adhesive bar on the extremity of which the inventors measured the highest pressure (FIG. 3D). […]
When actin cables have an unpredictable spatial distribution, a given deformation cannot be directly assigned to a defined force magnitude. […] When the deformation was measured along the shortest, and therefore most contracted, cell axis, the correlation was improved (FIG. 4C). […]

[2] = system: MCF10A expressing inducible ErbB2 receptor; test: Cell traction force measurement by crossbow micropattern bar length on micropatterned PAA, ErbB2 inducible cells; assay type: cell-based, human; conditions: 1 μM, 48 hr before traction force measurement; FIG. 5C
Excerpt: When actin cables have an unpredictable spatial distribution, a given deformation cannot be directly assigned to a defined force magnitude. Indeed, forces applied on adjacent adhesion sites both affect local deformations, due to the continuous nature of the substrate. Each deformation results from local and distant forces. So the calculation of the force field is highly dependent on the spatial distribution of force application sites and the relationship between deformation and forces varies from one cell to the other. The inventors hypothesized that in cells developing a reproducible architecture and a controlled pattern of force application, a given local deformation could be assigned to a defined value of the contractile force. […] When the deformation was measured along the shortest, and therefore most contracted, cell axis, the correlation was improved (FIG. 4C). […] On the crossbow, a single image acquisition was sufficient to measure the bar length and read the corresponding average cell traction force using the calibration curve (FIG. 4F). […]
The culture of MCF10A cells and the generation of ΔCK2β cell line was described previously (Deshiere et al (2008) Mol Cell Biochem 316(1-2):107-113). […] Substrate relaxation was assessed by detaching cells with trypsin. […]

Question: How did the “level of cell contraction versus WT cells (crossbow shortening)” value ([1]; 2 ng/mL for 2 days before plating, FIG. 5C) turn out when “TGFb1: known to induce epithelial to mesenchymal transition (R&D systems)” was run?
Answer: The value was “significantly higher level of cell contraction”.

Question: With `CCC(C)(C)C(=O)C(=O)N1CCCC[C@H]1C(=O)O[C@H](CCc1ccc(OC)c(OC)c1)c1cccc(OCC(=O)NCCNC(=O)COc2cccc([C@@H](CCc3ccc(OC)c(OC)c3)OC(=O)[C@@H]3CCCCN3C(=O)C(=O)C(C)(C)CC)c2)c1` [AP1510] as the compound, how does the “level of cell contraction versus WT cells” value [2] read?
Answer: The value was “no significant changes in the level of cell contraction”.

Question: Which “force magnitude decrease over time” value ([1]; 50 μM, single cell, FIG. 5B) does the source give for `Cc1ccc2c(c1)C(=O)C1(O)CCN(c3ccccc3)C1=N2` (stereo not shown) [Blebbistatin] here?
Answer: The value was “follows a single exponential decay”.

Question: What about the “force inhibition profile in response to increasing dose” value ([1]; increasing drug concentrations successively applied to 6 cells, crossbow bar length, FIG. 5A) of the same compound?
Answer: Its value is “matched the myosin II inhibition profile”.
